{
  "source": "patent US11572590B2",
  "about": "“Methods for evaluating tumor cell spheroids using 3D microfluidic cell culture device” (Dana-Farber Cancer Institute, Inc., priority 2017, dated 2023)",
  "test_in_all_cases": "SelectScreen Kinase Profiling, single point inhibition and IC50 for off-target kinases",
  "assay_type_in_all_cases": "biochemical",
  "key": {"off-target kinases [1]": {"target": "off-target kinases (Homo sapiens, UniProt Q5S007, R1441C)", "sequence (Q5S007 whole entry R1441C)": "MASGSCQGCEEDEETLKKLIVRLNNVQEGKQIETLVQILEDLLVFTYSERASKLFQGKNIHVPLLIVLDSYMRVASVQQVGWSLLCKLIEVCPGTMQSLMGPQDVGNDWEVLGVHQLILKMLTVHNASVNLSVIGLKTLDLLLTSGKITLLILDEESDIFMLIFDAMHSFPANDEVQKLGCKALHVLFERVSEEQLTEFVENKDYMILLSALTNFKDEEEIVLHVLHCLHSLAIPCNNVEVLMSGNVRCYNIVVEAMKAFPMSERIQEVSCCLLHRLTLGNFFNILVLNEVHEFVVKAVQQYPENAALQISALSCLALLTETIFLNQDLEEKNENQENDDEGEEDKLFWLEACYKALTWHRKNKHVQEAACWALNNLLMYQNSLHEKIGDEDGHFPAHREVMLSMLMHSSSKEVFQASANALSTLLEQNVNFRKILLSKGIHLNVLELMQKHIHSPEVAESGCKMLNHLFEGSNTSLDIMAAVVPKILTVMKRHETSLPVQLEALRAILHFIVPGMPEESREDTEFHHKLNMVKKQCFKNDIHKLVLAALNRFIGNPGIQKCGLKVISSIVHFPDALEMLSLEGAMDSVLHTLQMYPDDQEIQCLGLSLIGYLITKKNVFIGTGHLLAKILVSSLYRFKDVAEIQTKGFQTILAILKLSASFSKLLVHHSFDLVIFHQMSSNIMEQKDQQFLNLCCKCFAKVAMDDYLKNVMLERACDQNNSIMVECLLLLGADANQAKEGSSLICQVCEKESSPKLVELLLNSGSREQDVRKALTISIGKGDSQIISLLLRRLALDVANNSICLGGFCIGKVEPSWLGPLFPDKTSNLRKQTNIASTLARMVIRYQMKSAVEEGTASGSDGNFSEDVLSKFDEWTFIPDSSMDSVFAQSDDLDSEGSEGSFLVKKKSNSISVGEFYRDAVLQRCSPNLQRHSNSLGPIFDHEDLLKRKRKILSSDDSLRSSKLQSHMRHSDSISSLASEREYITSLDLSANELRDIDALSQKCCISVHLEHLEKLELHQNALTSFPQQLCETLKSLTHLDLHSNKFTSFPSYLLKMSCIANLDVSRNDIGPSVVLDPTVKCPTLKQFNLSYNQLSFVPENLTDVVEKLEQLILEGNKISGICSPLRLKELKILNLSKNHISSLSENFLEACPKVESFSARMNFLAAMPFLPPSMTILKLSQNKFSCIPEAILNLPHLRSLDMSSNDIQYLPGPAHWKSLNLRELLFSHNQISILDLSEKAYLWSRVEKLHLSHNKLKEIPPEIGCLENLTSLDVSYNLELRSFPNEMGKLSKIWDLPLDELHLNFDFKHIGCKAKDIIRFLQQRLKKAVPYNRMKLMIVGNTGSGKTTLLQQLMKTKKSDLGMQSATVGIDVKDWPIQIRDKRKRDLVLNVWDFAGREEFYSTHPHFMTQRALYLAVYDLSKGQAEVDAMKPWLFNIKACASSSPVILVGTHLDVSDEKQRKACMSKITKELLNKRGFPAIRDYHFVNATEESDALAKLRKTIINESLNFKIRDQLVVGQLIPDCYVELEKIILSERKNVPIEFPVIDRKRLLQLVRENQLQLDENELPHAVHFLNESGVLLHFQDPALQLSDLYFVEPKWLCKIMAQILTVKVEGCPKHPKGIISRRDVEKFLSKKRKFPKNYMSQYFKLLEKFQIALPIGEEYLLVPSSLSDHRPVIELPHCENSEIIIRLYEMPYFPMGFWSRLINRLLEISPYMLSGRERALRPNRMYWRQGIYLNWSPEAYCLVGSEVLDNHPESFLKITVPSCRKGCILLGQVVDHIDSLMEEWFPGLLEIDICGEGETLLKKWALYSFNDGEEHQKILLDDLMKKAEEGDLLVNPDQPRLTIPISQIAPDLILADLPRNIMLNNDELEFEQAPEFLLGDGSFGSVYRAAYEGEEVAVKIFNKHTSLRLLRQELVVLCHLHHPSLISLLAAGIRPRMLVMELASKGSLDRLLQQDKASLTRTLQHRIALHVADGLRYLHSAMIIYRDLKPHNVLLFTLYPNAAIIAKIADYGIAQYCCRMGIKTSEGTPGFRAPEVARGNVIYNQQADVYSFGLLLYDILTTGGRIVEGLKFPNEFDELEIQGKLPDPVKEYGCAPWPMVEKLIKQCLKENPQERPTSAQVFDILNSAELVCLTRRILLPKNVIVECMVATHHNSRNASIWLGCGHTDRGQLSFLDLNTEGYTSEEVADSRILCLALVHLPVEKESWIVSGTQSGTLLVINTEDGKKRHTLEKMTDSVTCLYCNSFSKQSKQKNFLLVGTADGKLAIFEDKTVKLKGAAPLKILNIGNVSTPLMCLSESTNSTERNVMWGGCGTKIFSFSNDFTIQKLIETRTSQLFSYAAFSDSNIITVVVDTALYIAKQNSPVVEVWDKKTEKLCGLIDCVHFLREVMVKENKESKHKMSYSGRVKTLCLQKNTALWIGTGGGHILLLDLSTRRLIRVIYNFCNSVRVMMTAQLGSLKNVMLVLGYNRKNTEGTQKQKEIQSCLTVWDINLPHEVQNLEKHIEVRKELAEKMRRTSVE", "settings": "LRRK2 R1441C, ATP Km app, Adapta"}, "off-target kinases [2]": {"target": "off-target kinases (Homo sapiens, UniProt P51617)", "sequence (P51617 whole entry)": "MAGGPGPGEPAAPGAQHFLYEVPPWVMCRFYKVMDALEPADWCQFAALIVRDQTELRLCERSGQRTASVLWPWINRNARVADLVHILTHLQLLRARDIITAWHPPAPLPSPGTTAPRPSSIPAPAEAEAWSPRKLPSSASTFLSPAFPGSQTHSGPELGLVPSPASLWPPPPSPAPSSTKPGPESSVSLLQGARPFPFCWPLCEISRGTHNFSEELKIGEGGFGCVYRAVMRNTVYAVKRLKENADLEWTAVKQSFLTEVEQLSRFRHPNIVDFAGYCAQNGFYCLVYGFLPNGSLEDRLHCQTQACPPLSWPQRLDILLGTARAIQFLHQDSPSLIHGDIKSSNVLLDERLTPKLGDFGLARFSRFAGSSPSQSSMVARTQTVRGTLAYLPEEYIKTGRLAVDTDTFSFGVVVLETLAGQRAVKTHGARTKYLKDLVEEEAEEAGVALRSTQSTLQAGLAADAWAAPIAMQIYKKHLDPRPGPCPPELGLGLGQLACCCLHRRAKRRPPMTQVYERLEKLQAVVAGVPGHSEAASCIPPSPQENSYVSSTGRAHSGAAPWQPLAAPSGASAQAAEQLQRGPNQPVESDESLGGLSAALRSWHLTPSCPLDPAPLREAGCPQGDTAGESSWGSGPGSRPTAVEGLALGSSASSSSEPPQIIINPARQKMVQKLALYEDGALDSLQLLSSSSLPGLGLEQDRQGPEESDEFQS", "settings": "IRAK1, ATP Km app, Adapta"}, "off-target kinases [3]": {"target": "T1, off-target kinases (Homo sapiens, UniProt Q9HBY8)", "T1 sequence (Q9HBY8 1-367)": "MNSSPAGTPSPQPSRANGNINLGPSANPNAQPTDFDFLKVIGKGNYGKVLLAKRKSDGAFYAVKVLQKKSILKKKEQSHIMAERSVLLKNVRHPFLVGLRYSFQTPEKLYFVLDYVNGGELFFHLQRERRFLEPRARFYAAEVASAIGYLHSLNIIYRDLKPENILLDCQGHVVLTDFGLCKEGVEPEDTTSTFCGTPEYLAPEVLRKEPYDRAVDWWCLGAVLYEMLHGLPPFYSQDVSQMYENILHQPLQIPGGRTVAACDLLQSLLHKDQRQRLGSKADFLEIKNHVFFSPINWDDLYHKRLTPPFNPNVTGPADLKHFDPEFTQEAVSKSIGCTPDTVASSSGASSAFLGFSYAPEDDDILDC", "settings": "SGK2, ZLYTE, ATP Km app"}, "off-target kinases [4]": {"target": "off-target kinases (Homo sapiens, UniProt Q9UK32)", "sequence (Q9UK32 whole entry)": "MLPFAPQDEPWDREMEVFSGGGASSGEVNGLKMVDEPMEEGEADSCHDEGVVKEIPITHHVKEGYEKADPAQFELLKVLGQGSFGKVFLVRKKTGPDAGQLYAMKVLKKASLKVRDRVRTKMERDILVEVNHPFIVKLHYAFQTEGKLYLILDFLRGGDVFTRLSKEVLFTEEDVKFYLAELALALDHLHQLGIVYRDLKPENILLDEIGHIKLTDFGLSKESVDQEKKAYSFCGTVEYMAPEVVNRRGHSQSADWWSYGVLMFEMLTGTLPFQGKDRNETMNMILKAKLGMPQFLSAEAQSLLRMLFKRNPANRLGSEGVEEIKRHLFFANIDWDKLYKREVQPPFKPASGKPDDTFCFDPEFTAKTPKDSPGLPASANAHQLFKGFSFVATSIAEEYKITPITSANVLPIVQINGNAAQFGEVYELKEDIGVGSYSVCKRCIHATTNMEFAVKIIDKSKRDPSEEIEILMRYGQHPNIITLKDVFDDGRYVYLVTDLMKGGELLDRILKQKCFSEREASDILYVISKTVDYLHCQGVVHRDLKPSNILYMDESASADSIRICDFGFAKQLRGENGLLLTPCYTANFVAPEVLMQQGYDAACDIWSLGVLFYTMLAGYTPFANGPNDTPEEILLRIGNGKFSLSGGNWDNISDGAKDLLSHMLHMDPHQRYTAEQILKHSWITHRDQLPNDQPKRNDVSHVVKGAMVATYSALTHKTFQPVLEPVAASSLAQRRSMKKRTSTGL", "settings": "RPS6KA6 (RSK4), ZLYTE, ATP Km app"}, "off-target kinases [5]": {"target": "T2, off-target kinases (Homo sapiens, UniProt Q9UKI8)", "T2 sequence (Q9UKI8 1-766)": "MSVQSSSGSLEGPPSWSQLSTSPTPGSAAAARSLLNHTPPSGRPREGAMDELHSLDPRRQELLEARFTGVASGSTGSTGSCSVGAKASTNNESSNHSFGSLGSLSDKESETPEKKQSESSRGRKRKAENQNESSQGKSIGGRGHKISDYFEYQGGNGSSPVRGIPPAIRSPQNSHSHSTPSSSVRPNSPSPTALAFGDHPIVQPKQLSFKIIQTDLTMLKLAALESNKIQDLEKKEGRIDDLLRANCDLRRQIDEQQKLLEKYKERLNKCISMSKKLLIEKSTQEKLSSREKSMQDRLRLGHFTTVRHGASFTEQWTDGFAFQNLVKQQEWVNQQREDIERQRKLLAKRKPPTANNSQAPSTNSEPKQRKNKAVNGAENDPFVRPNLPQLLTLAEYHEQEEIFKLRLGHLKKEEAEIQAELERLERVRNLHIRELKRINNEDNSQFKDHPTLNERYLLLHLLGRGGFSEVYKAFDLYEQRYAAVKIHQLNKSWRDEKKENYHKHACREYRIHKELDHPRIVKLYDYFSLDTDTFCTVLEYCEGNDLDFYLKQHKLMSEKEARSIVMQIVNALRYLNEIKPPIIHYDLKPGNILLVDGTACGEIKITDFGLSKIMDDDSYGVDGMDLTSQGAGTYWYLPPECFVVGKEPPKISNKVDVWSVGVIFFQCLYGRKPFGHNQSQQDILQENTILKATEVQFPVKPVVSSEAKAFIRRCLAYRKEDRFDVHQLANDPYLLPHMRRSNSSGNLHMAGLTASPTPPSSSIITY", "settings": "TLK1, LanthaScreen Binding"}, "off-target kinases [6]": {"target": "off-target kinases (Homo sapiens, UniProt P24941)"}},
  "note": "Where two headings read alike, the source gives them in different places.",
  "data": [
    {"smiles": "N#Cc1cc(-c2ncnc(Nc3ccc(N4CCN(C5COC5)CC4)cc3)n2)ccc1OC1CCOCC1", "note": "[Compound 1, 5-(4-((4-(4-(oxetan-3-yl)piperazin-1-yl)phenyl)amino)-1,3,5-triazin-2-yl)-2-((tetrahydro-2H-pyran-4-yl)oxy)benzonitrile]", "values": [
      {"measurement": "inhibition", "setting": "off-target kinases [1]; read-out: % Inhibition 1", "value": 99, "unit": "%"},
      {"measurement": "inhibition", "setting": "off-target kinases [1]; read-out: % Inhibition 2", "value": 95, "unit": "%"},
      {"measurement": "inhibition", "setting": "off-target kinases [1]; read-out: % Inhibition Avg", "value": 97, "unit": "%"},
      {"measurement": "inhibition", "setting": "off-target kinases [2]; read-out: % Inhibition 1", "value": 94, "unit": "%"},
      {"measurement": "inhibition", "setting": "off-target kinases [2]; read-out: % Inhibition 2", "value": 96, "unit": "%"},
      {"measurement": "inhibition", "setting": "off-target kinases [2]; read-out: % Inhibition Avg", "value": 95, "unit": "%"},
      {"measurement": "inhibition", "setting": "off-target kinases [3]; read-out: % Inhibition 1", "value": 7, "unit": "%"},
      {"measurement": "inhibition", "setting": "off-target kinases [3]; read-out: % Inhibition 2", "value": 12, "unit": "%"},
      {"measurement": "inhibition", "setting": "off-target kinases [3]; read-out: % Inhibition Avg", "value": 10, "unit": "%"},
      {"measurement": "inhibition", "setting": "off-target kinases [4]; read-out: % Inhibition 1", "value": 14, "unit": "%"},
      {"measurement": "inhibition", "setting": "off-target kinases [4]; read-out: % Inhibition 2", "value": 17, "unit": "%"},
      {"measurement": "inhibition", "setting": "off-target kinases [4]; read-out: % Inhibition Avg", "value": 16, "unit": "%"},
      {"measurement": "inhibition", "setting": "off-target kinases [5]; read-out: % Inhibition 1", "value": 13, "unit": "%"},
      {"measurement": "inhibition", "setting": "off-target kinases [5]; read-out: % Inhibition 2", "value": 17, "unit": "%"},
      {"measurement": "inhibition", "setting": "off-target kinases [5]; read-out: % Inhibition Avg", "value": 15, "unit": "%"},
      {"measurement": "inhibition", "setting": "off-target kinases [6]; CDK2/cyclin A1, LanthaScreen Binding, read-out: % Inhibition 1", "value": 33, "unit": "%"},
      {"measurement": "inhibition", "setting": "off-target kinases [6]; CDK2/cyclin A1, LanthaScreen Binding, read-out: % Inhibition 2", "value": 39, "unit": "%"},
      {"measurement": "inhibition", "setting": "off-target kinases [6]; CDK2/cyclin A1, LanthaScreen Binding, read-out: % Inhibition Avg", "value": 36, "unit": "%"},
      {"measurement": "inhibition", "setting": "off-target kinases [6]; CDK2/cyclin A2, LanthaScreen Binding, read-out: % Inhibition 1", "value": 24, "unit": "%"},
      {"measurement": "inhibition", "setting": "off-target kinases [6]; CDK2/cyclin A2, LanthaScreen Binding, read-out: % Inhibition 2", "value": 29, "unit": "%"},
      {"measurement": "inhibition", "setting": "off-target kinases [6]; CDK2/cyclin A2, LanthaScreen Binding, read-out: % Inhibition Avg", "value": 26, "unit": "%"},
      {"measurement": "inhibition", "setting": "off-target kinases [6]; CDK2/cyclin A, ZLYTE, ATP Km app, read-out: % Inhibition 1", "value": 38, "unit": "%"},
      {"measurement": "inhibition", "setting": "off-target kinases [6]; CDK2/cyclin A, ZLYTE, ATP Km app, read-out: % Inhibition 2", "value": 36, "unit": "%"},
      {"measurement": "inhibition", "setting": "off-target kinases [6]; CDK2/cyclin A, ZLYTE, ATP Km app, read-out: % Inhibition Avg", "value": 37, "unit": "%"},
      {"measurement": "inhibition", "setting": "off-target kinases [6]; CDK2/cyclin E1, LanthaScreen Binding, read-out: % Inhibition 1", "value": 15, "unit": "%"},
      {"measurement": "inhibition", "setting": "off-target kinases [6]; CDK2/cyclin E1, LanthaScreen Binding, read-out: % Inhibition 2", "value": 17, "unit": "%"},
      {"measurement": "inhibition", "setting": "off-target kinases [6]; CDK2/cyclin E1, LanthaScreen Binding, read-out: % Inhibition Avg", "value": 16, "unit": "%"},
      {"measurement": "inhibition", "setting": "off-target kinases [6]; CDK2/cyclin O, LanthaScreen, read-out: % Inhibition 1", "value": 39, "unit": "%"},
      {"measurement": "inhibition", "setting": "off-target kinases [6]; CDK2/cyclin O, LanthaScreen, read-out: % Inhibition 2", "value": 42, "unit": "%"},
      {"measurement": "inhibition", "setting": "off-target kinases [6]; CDK2/cyclin O, LanthaScreen, read-out: % Inhibition Avg", "value": 41, "unit": "%"}
    ]}
  ]
}
